Experimental data taken from patent US9403797B2, “5-(pyridin-2-yl-amino)-pyrazine-2-carbonitrile compounds and their therapeutic use” (Cancer Research Technology Limited, priority 2011, dated 2016).
pIC50: −log10 of the molar value. Read-outs that look alike come from different tables or passages of the source. Values belong to the compound of their own block, whether it stands above or below them.

How the values were obtained:
[1] = tested on: HT29 human colon carcinoma xenograft; experiment: In Vivo Study 2: combination with gemcitabine in HT29 human colon carcinoma xenograft; parameters: species or system mouse; conditions: for Tumour growth inhibition relative to controls / T/C vs. vehicle controls: day 24; for T/C vs. vehicle controls: tumour volumes; for Mean tumour volume (cm^3, mean ± SEM): day 24 after start of therapy, PAPC-A-01 75 mg/kg p.o., gemcitabine 100 mg/kg i.v.
Description: In Vivo Study 2: PAPC-A-01 in Combination with Gemcitabine in HT29 Human Colon Carcinoma Xenograft
Animals weighed 20.3±2.0 g at the start of the study. Handing and all experimental procedures were performed under sterile conditions in laminar flow hoods in accordance with UK Home Office, national and local ethical guidelines.
HT29 colon carcinoma cells from the American Type Culture Collection (ATCC, LGC Promochem, Middesex, UK) were harvested from tissue culture flasks and injected subcutaneously in the right flanks of mice (3 million cells per site). Once tumours were established (mean diameter 0.55±0.05 cm) mice were randomised to treatment groups (n=6) to receive (a) test compound (PAPC-A-01) (75 mg/kg), (b) gemcitabine (100 mg/kg), (c) a combination (PAPC-A-01) (75 mg/kg) and gemcitabine (100 mg/kg), or (d) relevant vehicles.
Clinical grade gemcitabine hydrochloride (GEMZAR, Eli Lilly, Newmarket, UK) was reconstituted in sterile 0.9% sodium chloride and aliquots frozen at −20° C. Gemcitabine was administered intravenously once weekly via a lateral tail vein on days 0 (day 5 after tumour cell implantation), 7 and 14. Test compound (PAPC-A-01) was dissolved in 10% DMSO and diluted out in 5% Tween 20, 85% saline. Test compound (PAPC-A-01) was administered by oral gavage on days 1, 2, 8, 9, 15 and 16. The control animals received both vehicles by the appropriate route on the designated days. The compounds were administered in a volume of 100 μL per 10 g body weight.
Animals were observed daily and body weights and tumours measured three times weekly. Two perpendicular tumour diameters were used to calculate volumes using the formula: V=4/3π[(d1+d2)/4]^3.
T/C values (volumes of treated tumours vs. controls) were calculated with respect to vehicle control tumours or those treated with gemcitabine alone, expressed as a percentage.

[2] = target: CHK1 (Homo sapiens (Human), UniProt O14757); experiment: Inhibitor potency vs. CHK1 (Assay 1A DELFIA or Assay 1B Caliper format); assay type: biochemical
CHK1, sequence (O14757 whole entry): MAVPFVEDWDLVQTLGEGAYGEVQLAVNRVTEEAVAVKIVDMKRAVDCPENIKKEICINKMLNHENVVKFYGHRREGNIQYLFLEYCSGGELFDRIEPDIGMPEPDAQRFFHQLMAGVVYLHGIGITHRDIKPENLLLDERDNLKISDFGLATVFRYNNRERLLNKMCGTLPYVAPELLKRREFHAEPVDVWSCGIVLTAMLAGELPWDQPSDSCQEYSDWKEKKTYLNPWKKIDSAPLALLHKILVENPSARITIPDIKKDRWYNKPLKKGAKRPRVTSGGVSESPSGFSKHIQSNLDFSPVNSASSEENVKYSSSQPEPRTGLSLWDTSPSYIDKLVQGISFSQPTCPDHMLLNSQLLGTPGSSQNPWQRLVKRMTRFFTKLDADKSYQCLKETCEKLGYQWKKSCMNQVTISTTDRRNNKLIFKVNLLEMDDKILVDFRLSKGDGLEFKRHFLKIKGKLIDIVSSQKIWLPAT
Description: Assay 1A: Determination of Inhibitor Potency vs. CHK1 in DELFIA Assay Format
CHK1 kinase function was measured in a DELFIA® assay in order to monitor phosphorylation of a CDC25C peptide using a specific phospho antibody. […] The reaction mixture was incubated for 30 minutes at room temperature and then stopped by the addition of buffer (125 μL) containing 40 mM EDTA, 0.05% Tween 20, 0.1% BSA in TBS (10× concentrate, Sigma). An aliquot (100 μL) of the stopped reaction mixture was transferred to a black neutravidin-coated plate (Perbio) and incubated for 1 hour on a shaker (Titertek, Flow Laboratories) at room temperature. […] The plates were washed a further four times with wash buffer before the addition of enhancement solution (100 μL/well, PerkinElmer Life Sciences).
Assay 1B: Determination of Inhibitor Potency Vs. CHK1 in Caliper Assay Format
CHK1 kinase activity was measured in a microfluidic assay that monitors the separation of a phosphorylated product from its substrate. […] For each test compound a 50 μM stock concentration in 100% DMSO was used. […] The plate was sealed and centrifuged (1 minutes, 1000 rpm) before incubation for one hour at room temperature. The reaction was stopped by the addition of separation buffer (90 μL). […] IC50 values were calculated in GraphPad Prism5 using a non linear regression fit of the log (inhibitor) vs. response with variable slope equation.

[3] = target: CHK2 (Homo sapiens (Human), UniProt O96017); experiment: Inhibitor selectivity for inhibition of CHK1 vs. CHK2 (Assay 2, CHK2 DELFIA assay); assay type: biochemical; conditions: CHK2 IC50/CHK1 IC50
CHK2, sequence (O96017 whole entry): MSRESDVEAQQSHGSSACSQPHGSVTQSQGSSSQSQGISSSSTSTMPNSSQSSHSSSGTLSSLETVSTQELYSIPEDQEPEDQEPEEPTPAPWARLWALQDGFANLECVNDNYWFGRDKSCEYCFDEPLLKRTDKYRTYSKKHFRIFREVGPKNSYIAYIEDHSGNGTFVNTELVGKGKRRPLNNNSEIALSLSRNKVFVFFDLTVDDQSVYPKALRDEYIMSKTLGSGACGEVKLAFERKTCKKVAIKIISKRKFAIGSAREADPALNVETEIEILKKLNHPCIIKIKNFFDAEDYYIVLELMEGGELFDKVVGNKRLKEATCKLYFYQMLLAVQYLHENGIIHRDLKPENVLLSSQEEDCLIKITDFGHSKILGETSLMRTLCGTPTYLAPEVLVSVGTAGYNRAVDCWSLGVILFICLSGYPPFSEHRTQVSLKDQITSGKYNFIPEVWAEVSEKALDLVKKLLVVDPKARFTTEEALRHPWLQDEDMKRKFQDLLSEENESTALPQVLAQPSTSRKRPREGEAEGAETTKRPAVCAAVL
Description: The plates were washed a further four times with wash buffer before the addition of enhancement solution (100 μL/well, PerkinElmer Life Sciences).

[4] = tested on: TH-MYCN neuroblastoma; experiment: In Vivo Study 1: transgenic MYCN-driven neuroblastoma model; parameters: species or system mouse
Description: In Vivo Study 1: PAPC-A-01 in Transgenic MYCN-Driven Neuroblastoma Model
Spontaneous neuroblastomas arising in hemizygous mice transgenic for TH-MYCN (human MYCN under the control of the rat tyrosine hydroxylase promoter) were detected by abdominal palpation. Sequential animals with well-established tumours (30-70 days of age) were randomised to receive either test compound (PAPC-A-01) or vehicle until 8-9 mice per group were accrued. The test compound (PAPC-A-01) was administered as a single agent at 100 mg/kg p.o. daily for 7 consecutive days by oral gavage (100 μL/10 g body weight) and controls received an equivalent volume of vehicle (10% DMSO, 5% Tween 20, 85% saline). Neuroblastoma size was assessed by MRI and by the mass of tumours dissected from the abdominal cavity at the end of therapy.
^1H MRI was performed on a 7T Bruker horizontal bore microimaging system (Bruker Instruments, Ettlingen, Germany) using a 3 cm birdcage coil. Anaesthesia was induced a combination of fentanyl citrate (0.315 mg/mL) plus fluanisone (10 mg/mL) (Hypnorm, Janssen Pharmaceutical, Oxford, UK) and midazolam (5 mg/mL) (Roche, Welwyn Garden City, UK) and water (1:1:2). Animal body temperature was maintained by a warm air blower through the magnet bore.
Anatomical T2-weighted coronal and transverse images were acquired from twenty contiguous 1 mm-thick coronal slices through the mouse abdomen, using a rapid acquisition with refocused echoes (RARE) sequence with 4 averages of 128 phase encoding steps over a 3×3 cm field of view, two echoes of 36 and 132 ms, a TR of 4.5 s and a RARE factor of 8. Following MRI, the mice were left to recover on a heat mat for 24 hours. Tumour volumes were measured using segmentation from regions of interest drawn on every slice from the coronal T2 weighted images containing tumour using in-house software (ImageView, working under IDL, ITT, Boulder, Colo., USA).

[5] = in vivo; conditions: female, BALB/c, mouse, Oral bioavail. (plasma concentration, 1 hour following 10 mg/kg p.o.)
[6] = tested on: HT29 cells; experiment: Mitosis Inhibition Assay (MIA), checkpoint abrogation; conditions: Homo sapiens, HT-29, read-out: MIA IC50
[7] = Comparative oral bioavailability by limited sampling in vivo pharmacokinetics; conditions: female, BALB/c, mouse, plasma, 10 mg/kg, Oral bioavail. (plasma concentration, 1 hour following 10 mg/kg p.o.), female BALB/c mice, expressed relative to 10 mg/kg p.o.
[8] = Assay 1A (DELFIA) or Assay 1B (Caliper), read-out: CHK1 IC50

Compound: Nc1ccn([C@@H]2O[C@H](CO)[C@@H](O)C2(F)F)c(=O)n1 [Gemcitabine, reference compound]
Tumour growth inhibition relative to controls [1]: approximately 20%
T/C vs. vehicle controls [1]: 80.8%
Mean tumour volume (cm^3, mean ± SEM) [1]: 0.888 ± 0.188 cm^3

Compound: COc1cc(Nc2cnc(C#N)c(O[C@H](C)CN(C)C)n2)ncc1-c1cnn(C)c1 [PAPC-A-01, (R)-3-((1-(Dimethylamino)propan-2-yl)oxy)-5-((4-methoxy-5-(1-methyl-1H-pyrazol-4-yl)pyridin-2-yl)amino)pyrazine-2-carbonitrile]
pIC50 [2]: > 7.70
pIC50 [2, 8]: 8.22
CHK1 vs. CHK2 selectivity [3]: 540-fold
T/C (tumour weight) ([4]; 100 mg/kg p.o. daily for 7 days): 13.4%
MR imaging in individual mice, pre-treatment and on day 7 ([4]; 7 day treatment period, 100 mg/kg p.o. daily): tumour regression
Mean weight of tumours at the end of the study ([4]; mean±SD, 100 mg/kg p.o. daily for 7 days, control 2.1±0.7 g): 0.3 ± 0.2 g
Tumour volume (MRI) ([4]; one mouse, following 7 days treatment, 100 mg/kg p.o. daily, pre-treatment volume 1960 mm^3): 417 mm^3
Tumour growth inhibition relative to controls [1]: no growth inhibition
T/C vs. vehicle controls [1]: 101.4%
Mean tumour volume (cm^3, mean ± SEM) [1]: 1.114 ± 0.257 cm^3

pIC50 [2, 8]: > 7.70
Compound: C[C@H](CN(C)C)Oc1nc(Nc2cc(N(C)C)c(-c3cnn(C)c3)cn2)cnc1C#N [PAPC-A-03, (R)-5-((4-(Dimethylamino)-5-(1-methyl-1H-pyrazol-4-yl)pyridin-2-yl)amino)-3-((1-(dimethylamino)propan-2-yl)oxy)pyrazine-2-carbonitrile]

pIC50 [2]: > 7.70
Compound: CNc1cc(Nc2cnc(C#N)c(O[C@H](C)CN(C)C)n2)ncc1C#CC(C)(C)O [PAPC-A-08, (R)-3-((1-(Dimethylamino)propan-2-yl)oxy)-5-((5-(3-hydroxy-3-methylbut-1-yn-1-yl)-4-(methylamino)pyridin-2-yl)amino)pyrazine-2-carbonitrile]

concentration at 1 h [5]: ≥ 10 nM
Compound: CNc1cc(Nc2cnc(C#N)c(O[C@H](C)CN(C)C)n2)ncc1C1CC1 [PAPC-A-09, (R)-5-((5-Cyclopropyl-4-(methylamino)pyridin-2-yl)amino)-3-((1-(dimethylamino)propan-2-yl)oxy)pyrazine-2-carbonitrile]

pIC50 [2]: > 7.70
Compound: CNc1cc(Nc2cnc(C#N)c(O[C@H](C)CN(C)C)n2)ncc1C(=O)OC [PAPC-A-10, (R)-Methyl 6-((5-cyano-6-((1-(dimethylamino)propan-2-yl)oxy)pyrazin-2-yl)amino)-4-(methylamino)nicotinate]

pIC50 [2]: > 7.70
Compound: COc1cc(Nc2cnc(C#N)c(O[C@@H]3CCNC3)n2)ncc1-c1cnn(C)c1 [PAPC-B-01, (R)-5-((4-Methoxy-5-(1-methyl-1H-pyrazol-4yl)pyridin-2-yl)amino)-3-(pyrrolidin-3-yloxy)pyrazine-2-carbonitrile]

pIC50 [2]: > 7.70
Compound: COc1cc(Nc2cnc(C#N)c(O[C@@H]3CCN(C)C3)n2)ncc1-c1cnn(C)c1 [PAPC-B-02, (R)-5-((4-Methoxy-5-(1-methyl-1H-pyrazol-4-yl)pyridin-2-yl)amino)-3-((1-methylpyrrolidin-3-yl)oxy)pyrazine-2-carbonitrile]

pIC50 [6]: > 6.30
Compound: CNc1cc(Nc2cnc(C#N)c(O[C@@H]3CCNC3)n2)ncc1-c1cnn(C)c1 [PAPC-B-03, (R)-5-((5-(1-Methyl-1H-pyrazol-4-yl)-4-(methylamino)pyridin-2-yl)amino)-3-(pyrrolidin-3-yloxy)pyrazine-2-carbonitrile]

pIC50 [6]: > 6.30
Compound: CNc1cc(Nc2cnc(C#N)c(O[C@H]3CCNC3)n2)ncc1-c1cnn(C)c1 [PAPC-B-04, (S)-5-((5-(1-Methyl-1H-pyrazol-4-yl)-4-(methylamino)pyridin-2-yl)amino)-3-(pyrrolidin-3-yloxy)pyrazine-2-carbonitrile]

pIC50 [2]: > 7.70
Compound: CNc1cc(Nc2cnc(C#N)c(O[C@@H]3CCN(C)C3)n2)ncc1-c1cnn(C)c1 [PAPC-B-05, (R)-5-((5-(1-Methyl-1H-pyrazol-4-yl)-4-(methylamino)pyridin-2-yl)amino)-3-((1-methylpyrrolidin-3-yl)oxy)pyrazine-2-carbonitrile]

pIC50 [2]: > 7.70
concentration at 1 h [5]: ≥ 10 nM
Compound: CNc1cc(Nc2cnc(C#N)c(O[C@H]3CCN(C)C3)n2)ncc1-c1cnn(C)c1 [PAPC-B-06, (S)-5-((5-(1-Methyl-1H-pyrazol-4-yl)-4-(methylamino)pyridin-2-yl)amino)-3-((1-methylpyrrolidin-3-yl)oxy)pyrazine-2-carbonitrile]

pIC50 [2, 8]: > 7.70
concentration at 1 h [7]: ≥ 10 nM
Compound: CNc1cc(Nc2cnc(C#N)c(O[C@@H]3CCNC3)n2)ncc1C#CC(C)(C)O [PAPC-B-08, (R)-5-((5-(3-Hydroxy-3-methylbut-1-yn-1-yl)-4-(methylamino)pyridin-2-yl)amino)-3-(pyrrolidin-3-yloxy)pyrazine-2-carbonitrile]

pIC50 [2]: > 7.70
Compound: COC(=O)c1cnc(Nc2cnc(C#N)c(O[C@@H]3CCNC3)n2)cc1N(C)C [PAPC-B-11, (R)-Methyl 6-((5-cyano-6-(pyrrolidin-3-yloxy)pyrazin-2-yl)amino)-4-(dimethylamino)nicotinate]
